Results: patent publication US20210322582A1, “RADIOACTIVE IMIDAZOTHIADIAZOLE DERIVATIVE COMPOUND” (Nihon Medi-Physics Co., Ltd., priority 2018, published 2021)

Columns and labels:
HT-29 tumor = test: Biodistribution of [^111In]ITDA2 in HT-29 tumor cancer-bearing mouse; assay type: in vivo; settings: from Tables 8 and 9
Description: HT-29 cells (5×10^6 cells/mouse) and MDA-MB-231 cells (1×10^7 cells/mouse) were subcutaneously inoculated into the left shoulders of 5-week old male BALB/c nude mice, respectively, and the mice were used when the tumor diameter reached 6 to 10 mm. A saline solution (100 μL) in which [^111In]ITDA2 (40 kBq) had been dissolved was administered to each of the HT-29 tumor or MDA-MB-231 tumor cancer-bearing mice (n=5) via the tail vein. The HT-29 tumor cancer-bearing mice were slaughtered after the lapse of 1, 4, 8, and 24 hours from the administration, the MDA-MB-231 tumor cancer-bearing mouse was slaughtered after the lapse of 24 hours from the administration, and the blood, spleen, pancreas, stomach, intestines, kidney, liver, heart, lungs, brain, tumor, and muscle were recovered from each of the mice. The weight of each organ was measured, and the amount of radioactivity in each organ was measured by using a gamma counter. The accumulation of radioactivity in each organ except for stomach was expressed by % injected dose/g organ obtained by dividing the ratio of the amount of radioactivity of each organ to the administered amount of radioactivity by the organ weight. The stomach was expressed by % injected dose.

CA-IX [1] = molecular target: T1, CA-IX (Homo sapiens, UniProt Q16790); test: In vitro autoradiography of tumor sections using [^123I]HIC205; assay type: binding; parameters: Fresh-frozen sections (each 14 μm) were prepared from a tumor having a tumor volume of around 200 mm^3; from tissue
Description: Fresh-frozen sections (each 14 μm) were prepared from a tumor having a tumor volume of around 200 mm^3, and then the prepared fresh-frozen sections were sufficiently air dried. The dried fresh-frozen sections were immersed in Tris-buffered saline (TBS), and then immersed in a TBS adjusted so as to have 5 kBq/ml of [^123I]HIC205 and a solution containing 400 μM acetazolamide in the TBS (both contained 0.1% dimethyl sulfoxide (DMSO)), and both the sections were incubated at the same time (at 37° C. for 30 minutes). After that, the resultant sections were washed with TBS and 40% ethanol (EtOH)-containing TBS, respectively, and then air dried. The air-dried sections were each brought into contact with an imaging plate (IP), and were read out by a bioimaging analyzer BAS2000 (manufactured by FUJIFILM Corporation). The section used for autoradiography (ARG) was directly subjected to immunohistochemistry that was performed by using a goat-derived anti-CA-IX antibody.
The localization of the radioactivity of [^123I]HIC205 and the difference in the binding of [^123I]HIC205 between the individual treatments are shown FIG. 1.
The results of the comparison of the localization of the radioactivity of [^123I]HIC205 with the expression of CA-IX are shown in FIGS. 2A and 2B. […] The region between two arrows indicates the part where the binding of [^123I]HIC205 and the expression of CA-IX are not consistent. Further, FIG. 2B is an enlarged view showing the region between the two arrows of the result of immunohistochemical staining of animal B shown in the lower left of FIG. 2A, in which the result of immunohistochemical staining of FIG. 2A was shown on the left side, and an enlarged view of the region between the two arrows was shown on the right side. The parts indicated by the arrows indicate the overlap of the section.

CA-IX [2] = molecular target: T1, CA-IX; test: Affinity of non-radioactive HIC205 for CA-IX measured by Biacore; assay type: binding; parameters: purchased R&D Systems Inc
Description: The affinity was measured by using Biacore (manufactured by GE Healthcare). Human CA-IX (manufactured by R&D Systems Inc.) was immobilized on a sensor chip (CM7) by an amino coupling method. After non-radioactive HIC205 was dissolved in 100% dimethyl sulfoxide (DMSO), the obtained solution was diluted with a running buffer in a stepwise manner by 10 times, and a non-radioactive HIC205 solution containing 0.1% DMSO was finally prepared. Based on this, a 2-fold dilution series was prepared with the running buffer containing 0.1% DMSO, and the measurement was performed. In this regard, the composition of the running buffer was 0.01 M HEPES (pH 7.4), 0.15M sodium chloride, and 0.005% v/v Surfactant P20. The sensorgram obtained from each concentration was directly curve fitted by a non-linear least-squares method, and the affinity was calculated.

## NS(=O)(=O)c1nn2cc(-c3ccc(NC(=O)CN4CCN(CC(=O)O)CCN(CC(=O)Nc5ccc(-c6cn7nc(S(N)(=O)=O)sc7n6)cc5)CCN(CC(=O)O)CC4)cc3)nc2s1 [ITDA2, 2,2′-(4,10-bis(2-oxo-2-((4-(2-sulfamoylimidazo[2,1-b][1,3,4]thiadiazol-6-yl)phenyl)amino)ethyl)-1,4,7,10-tetraazacyclododecan-1,7-diyl) diacetic acid]
HT-29 tumor
  Tumor accumulation compared with ITDA1: lower values as compared with those of ITDA1
  Tumor/blood ratio compared with ITDA1: lower values as compared with those of ITDA1
  Tumor/muscle ratio compared with ITDA1: almost the same value as that of ITDA1

## NS(=O)(=O)c1nn2cc(-c3ccc([123I])cc3)nc2s1 [[^123I]HIC205]
CA-IX [1]; 400 μM acetazolamide
  Binding on the tumor section with simultaneous incubation with acetazolamide: decreased
CA-IX [1]; 5 kBq/ml, 37° C. for 30 minutes, washed with TBS
  Binding on the tumor section (autoradiogram): confirmed with contrast on the tumor section
CA-IX [1]; 40% ethanol-containing TBS wash
  Localization of the radioactivity after washing the section with 40% ethanol: significantly reduced
CA-IX [1]; conclusion of autoradiography
  Binding ability to CA-IX: has binding ability to CA-IX
CA-IX [1]; two animals
  Localization of radioactivity compared with expression site of CA-IX (immunohistochemical staining): mostly consistent

## NS(=O)(=O)c1nn2cc(-c3ccc(I)cc3)nc2s1 [non-radioactive HIC205, 6-(4-iodophenyl)imidazo[2,1-b][1,3,4]thiadiazole-2-sulfonamide]
CA-IX [2]; immobilized human CA-IX, n = 1
  Kd: 0.109 nM
CA-IX [2]; n = 1
  Dissociation constant (×10^−3): 0.903 ×10^−3 [1/s]
CA-IX [2]; n = 1, read-out: Binding constant (×10^5)
  kon: 8.31e+06 M⁻¹ s⁻¹
